Values of other authors, collected in patent publication US20230149379A1, “COMBINATION THERAPY FOR ACUTE MYELOID LEUKEMIA” (Celgene Corporation, priority 2020, published 2023).

Key:
R/R AML = details: stepwise dosing
AML at relapse = details: administered alone

Compound | tumor lysis syndrome (R/R AML) | response in treating AML at relapse (AML at relapse)
CC1(C)CCC(CN2CCN(c3ccc(C(=O)NS(=O)(=O)c4ccc(NCC5CCOCC5)c([N+](=O)[O-])c4)c(Oc4cnc5[nH]ccc5c4)c3)CC2)=C(c2ccc(Cl)cc2)C1 [Venetoclax, 4-[4-[[2-(4-chlorophenyl)-4,4-dimethylcyclohexen-1-yl]methyl]piperazin-1-yl]-N-[3-nitro-4-(oxanylmethylamino)phenyl]sulfonyl-2-(1H-pyrrolo[2,3-b]pyridin-5-yloxy)benzamide] | did not occur | 
CT-011: anti-PD-1 antibody, a humanized antibody |  | failed to show response
